Laboratory results from patent US6982348B2, “Aminoethanol derivatives” (Takeda Pharmaceutical Company Limited, priority 2001, dated 2006).

First: O=C(N[C@H](Cc1cccc(CC(F)(F)C(F)F)c1)[C@@H](O)c1ccc(F)cc1)c1ccc(F)c2ccccc12 (racemic) [Example 339, 4-fluoro-N-[(1RS,2SR)-2-(4-fluorophenyl)-2-hydroxy-1-[3-(2,2,3,3-tetrafluoropropyl)benzyl]ethyl]naphthalene-1-carboxamide]
Second: O=C(N[C@H](Cc1cccc(CC(F)(F)C(F)F)c1)[C@@H](O)c1ccc(F)cc1)c1cccc2c(Cl)cccc12 (racemic) [Example 340, 5-chloro-N-[(1RS,2SR)-2-(4-fluorophenyl)-2-hydroxy-1-[3-(2,2,3,3-tetrafluoropropyl)benzyl]ethyl]naphthalene-1-carboxamide]
The melting point of the first is lower: 172 to 173 °C for the first, 174 to 175 °C for the second.

First: CC(C)(C)OC(=O)N[C@H](Cc1cccc(C(F)C(C)(C)F)c1)[C@@H](O)c1ccc(F)cc1 (mixture of isomers) [Example 341, tert-butyl N-[(1RS,2SR)-1-[3-(1,2-difluoro-2-methylpropyl)benzyl]-2-(4-fluorophenyl)-2-hydroxyethyl]carbamate]
Second: CC(C)C(F)(F)Cc1ccc(C[C@@H](NC(=O)OC(C)(C)C)[C@@H](O)c2cccc(Cl)c2)cc1 (racemic) [Example 352, tert-butyl N-[(1RS,2SR)-2-(3-chlorophenyl)-1-[4-(2,2-difluoro-3-methylbutyl)benzyl]-2-hydroxyethyl]carbamate]
The melting point of the first is higher: 148 to 149 °C for the first, 139 to 141 °C for the second.

First: CC(C)(F)C(F)c1cccc(C[C@@H](NC(=O)c2cccc3c2C=CCCC3)[C@@H](O)c2ccc(F)cc2)c1 (mixture of isomers) [Example 342, N-[(1RS,2SR)-1-[3-(1,2-difluoro-2-methylpropyl)benzyl]-2-(4-fluorophenyl)-2-hydroxyethyl]-6,7-dihydro-5H-benzo[a]cycloheptene-1-carboxamide]
Second: CC(F)(F)c1cccc(C[C@@H](NC(=O)c2cccc3c2C=CCCC3)[C@@H](O)c2ccc(F)cc2)c1 (racemic) [Example 360, N-[(1RS,2SR)-1-[3-(1,1-difluoroethyl)benzyl]-2-(4-fluorophenyl)-2-hydroxyethyl]-6,7-dihydro-5H-benzo[a]cycloheptene-1-carboxamide]
The melting point of the first is lower: 102 to 104 °C for the first, 170 to 171 °C for the second.

First: CC(C)(C)Cc1ccc(C[C@@H](NC(=O)c2cccc3c2C=CCCC3)[C@@H](O)c2cccc(Cl)c2)cc1 (racemic) [Example 344, N-[(1RS,2SR)-2-(3-chlorophenyl)-2-hydroxy-1-(4-neopentylbenzyl)ethyl]-6,7-dihydro-5H-benzo[a]cycloheptene-1-carboxamide]
Second: O=C(N[C@H](Cc1ccc(CC(F)(F)C(F)(F)F)cc1)[C@@H](O)c1cccc(Cl)c1)c1cccc2c1C=CCCC2 (racemic) [Example 374, N-[(1RS,2SR)-1-[4-(2,2,3,3,3-pentafluoropropyl)benzyl]-2-(3-chlorophenyl)-2-hydroxyethyl]-6,7-dihydro-5H-benzo[a]cycloheptene-1-carboxamide]
The melting point of the first is lower: 147 to 149 °C for the first, 176 to 177 °C for the second.

Compared with `CC(C)(C)Cc1ccc(C[C@@H](NC(=O)c2ccc(F)c3ccccc23)[C@@H](O)c2cccc(Cl)c2)cc1` (racemic) [Example 345, 4-fluoro-N-[(1RS,2SR)-2-(3-chlorophenyl)-2-hydroxy-1-(4-neopentylbenzyl)ethyl]naphthalene-1-carboxamide], `CC(C)(C)Cc1ccc(C[C@@H](NC(=O)c2cccc3c(Cl)cccc23)[C@@H](O)c2cccc(Cl)c2)cc1` (racemic) [Example 346, 5-chloro-N-[(1RS,2SR)-2-(3-chlorophenyl)-2-hydroxy-1-(4-neopentylbenzyl)ethyl]naphthalene-1-carboxamide] is higher in melting point: 150 to 151 °C for the first, 168 to 169 °C for the second.

First: O=C(N[C@H](Cc1cccc(C(=O)C(F)(F)C(F)F)c1)[C@@H](O)c1ccc(F)cc1)c1ccc(F)c2ccccc12 (racemic) [Example 348, 4-fluoro-N-[(1RS,2SR)-2-(4-fluorophenyl)-2-hydroxy-1-[3-(2,2,3,3-tetrafluoropropionyl)benzyl]ethyl]naphthalene-1-carboxamide]
Second: C=C(c1cccc(C[C@@H](NC(=O)c2ccc(F)c3ccccc23)[C@@H](O)c2ccc(F)cc2)c1)C(F)(F)C(F)F (racemic) [Example 349, 4-fluoro-N-[(1RS,2SR)-2-(4-fluorophenyl)-2-hydroxy-1-[3-[1-(1,1,2,2-tetrafluoroethyl)vinyl]benzyl]ethyl]naphthalene-1-carboxamide]
The melting point of the first is lower: 160 to 162 °C for the first, 162 to 163 °C for the second.

First: O=C(N[C@H](Cc1cccc(C(=O)C(F)(F)C(F)F)c1)[C@@H](O)c1ccc(F)cc1)c1cccc2c(Cl)cccc12 (racemic) [Example 350, 5-chloro-N-[(1RS,2SR)-2-(4-fluorophenyl)-2-hydroxy-1-[3-(2,2,3,3-tetrafluoropropionyl)benzyl]ethyl]naphthalene-1-carboxamide]
Second: CC(F)(F)c1cccc(C[C@@H](NC(=O)c2ccc(F)c3ccccc23)[C@@H](O)c2ccc(F)cc2)c1 (racemic) [Example 359, N-[(1RS,2SR)-1-[3-(1,1-difluoroethyl)benzyl]-2-(4-fluorophenyl)-2-hydroxyethyl]-4-fluoro-1-naphthamide]
The melting point of the first is lower: 154 to 155 °C for the first, 182 to 183 °C for the second.

First: CC(C)C(F)(F)Cc1ccc(C[C@@H](NC(=O)c2ccc(F)c3ccccc23)[C@@H](O)c2cccc(Cl)c2)cc1 (racemic) [Example 353, N-[(1RS,2SR)-2-(3-chlorophenyl)-1-[4-(2,2-difluoro-3-methylbutyl)benzyl]-2-hydroxyethyl]-4-fluoronaphthalene-1-carboxamide]
Second: CC(C)C(F)(F)Cc1ccc(C[C@@H](NC(=O)c2cccc3c(Cl)cccc23)[C@@H](O)c2cccc(Cl)c2)cc1 (racemic) [Example 354, 5-chloro-N-[(1RS,2SR)-2-(3-chlorophenyl)-1-[4-(2,2-difluoro-3-methylbutyl)benzyl]-2-hydroxyethyl]naphthalene-1-carboxamide]
The melting point of the first is higher: 181 to 182 °C for the first, 170 to 171 °C for the second.

Compared with `CC(C)(C)c1ccc(C[C@@H](NC(=O)c2ccc(F)c3ccccc23)[C@@H](O)c2ccc(F)cc2)cc1` (racemic) [Example 357, N-[(1RS,2SR)-1-(4-tert-butylbenzyl)-2-(4-fluorophenyl)-2-hydroxyethyl]-4-fluoro-1-naphthamide], `CC(C)(C)c1ccc(C[C@@H](NC(=O)c2cccc3c(F)cccc23)[C@@H](O)c2ccc(F)cc2)cc1` (racemic) [Example 364, N-[(1RS,2SR)-1-(4-tert-butylbenzyl)-2-(4-fluorophenyl)-2-hydroxyethyl]-5-fluoro-1-naphthamide] is lower in melting point: 149 to 150 °C for the first, 148 to 149 °C for the second.

First: CC(C)(C)OC(=O)N[C@H](Cc1cccc(OC(F)(F)C(F)F)c1)[C@@H](O)c1csc(-c2ccccc2)n1 (racemic) [Example 361, tert-butyl (1RS,2RS)-2-hydroxy-2-(2-phenyl-1,3-thiazol-4-yl)-1-[3-(1,1,2,2-tetrafluoroethoxy)benzyl]ethylcarbamate]
Second: O=C(N[C@H](Cc1cccc(OC(F)(F)C(F)F)c1)[C@@H](O)c1csc(-c2ccccc2)n1)c1ccc(F)c2ccccc12 (racemic) [Example 362, 4-fluoro-N-{(1RS,2RS)-2-hydroxy-2-(2-phenyl-1,3-thiazol-4-yl)-1-[3-(1,1,2,2-tetrafluoroethoxy)benzyl]ethyl}-1-naphthamide]
The melting point of the first is lower: 127 to 128 °C for the first, 148 to 150 °C for the second.

Compared with `CC(C)(C)COc1cccc(C[C@@H](NC(=O)c2ccc(F)c3ccccc23)[C@@H](O)c2cccc(Cl)c2)c1` (racemic) [Example 366, N-[(1RS,2SR)-1-[3-(neopentyloxy)benzyl]-2-(3-chlorophenyl)-2-hydroxyethyl]-4-fluoro-1-naphthamide], `CC(C)(C)COc1cccc(C[C@@H](NC(=O)c2cccc3c(Cl)cccc23)[C@@H](O)c2cccc(Cl)c2)c1` (racemic) [Example 367, N-[(1RS,2SR)-1-[3-(neopentyloxy)benzyl]-2-(3-chlorophenyl)-2-hydroxyethyl]-5-chloro-1-naphthamide] is lower in melting point: 165 to 166 °C for the first, 142 to 143 °C for the second.

First: CC(C)(C)COc1cccc(C[C@@H](NC(=O)c2cccc3c2C=CCCC3)[C@@H](O)c2cccc(Cl)c2)c1 (racemic) [Example 368, N-[(1RS,2SR)-1-[3-(neopentyloxy)benzyl]-2-(3-chlorophenyl)-2-hydroxyethyl]-6,7-dihydro-5H-benzo[a]cycloheptene-1-carboxamide]
Second: CC(C)(C)c1cccc(C[C@@H](NC(=O)c2cccc3c(Cl)cccc23)[C@@H](O)c2cccc(Cl)c2)c1 (racemic) [Example 371, N-[(1RS,2SR)-1-[3-(tert-butyl)benzyl]-2-(3-chlorophenyl)-2-hydroxyethyl]-5-chloro-1-naphthamide]
The melting point of the first is higher: 128 to 129 °C for the first, 91 to 93 °C for the second.

First: CC(C)(C)c1cccc(C[C@@H](NC(=O)c2ccc(F)c3ccccc23)[C@@H](O)c2cccc(Cl)c2)c1 (racemic) [Example 369, N-[(1RS,2SR)-1-[3-(tert-butyl)benzyl]-2-(3-chlorophenyl)-2-hydroxyethyl]-4-fluoro-1-naphthamide]
Second: O=C(N[C@H](Cc1ccc(CC(F)(F)C(F)(F)F)cc1)[C@@H](O)c1cccc(Cl)c1)c1ccc(F)c2ccccc12 (racemic) [Example 373, N-[(1RS,2SR)-1-[4-(2,2,3,3,3-pentafluoropropyl)benzyl]-2-(3-chlorophenyl)-2-hydroxyethyl]-4-fluoro-1-naphthamide]
The melting point of the first is lower: 76 to 78 °C for the first, 191 to 192 °C for the second.

Compared with `CC(C)(C)OC(=O)N[C@H](Cc1ccc(CC(F)(F)C(F)(F)F)cc1)[C@@H](O)c1cccc(Cl)c1` (racemic) [Example 372, tert-butyl (1RS,2SR)-2-(3-chlorophenyl)-2-hydroxy-1-[4-(2,2,3,3,3-pentafluoropropyl)benzyl]ethylcarbamate], `O=C(N[C@H](Cc1ccc(CC(F)(F)C(F)(F)F)cc1)[C@@H](O)c1cccc(Cl)c1)c1cccc2c(Cl)cccc12` (racemic) [Example 375, 5-chloro-N-{(1RS,2SR)-2-(3-chlorophenyl)-2-hydroxy-1-[4-(2,2,3,3,3-pentafluoropropyl)benzyl]ethyl}-1-naphthamide] is higher in melting point: 156 to 157 °C for the first, 216 to 217 °C for the second.
